# Activity calls are given as the source filed them. No cut-off for these calls is given here.
# Tested on: Plasmodium berghei
# Assay: Antimalarial activity against Plasmodium berghei infected mice (Mus musculus) at 30 mg/kg peroral dose
# Type: functional, organism-based
# Design: dose 30 mg/kg
row,Compound,Activity
1,C[C@@H]1CC[C@@H]2[C@]34OO[C@@](C)(CC[C@@H]13)O[C@H]4O[C@@H](O)[C@]2(C)S(C)(=O)=O,inactive
2,C[C@@H]1CC[C@@H]2[C@]34OO[C@@](C)(CC[C@@H]13)O[C@H]4O[C@@H](O)[C@]2(C)S(=O)(=O)c1ccccc1,inactive
3,C[C@@H]1CC[C@@H]2[C@]34OO[C@@](C)(CC[C@@H]13)O[C@H]4O[C@H](O)[C@@]2(C)S(C)(=O)=O,inactive
4,CCCCCc1ccc(C(=O)O[C@@H]2O[C@@H]3O[C@]4(C)CC[C@H]5[C@H](C)CC[C@H]([C@@]35OO4)[C@@]2(C)S(=O)(=O)c2ccccc2)cc1,inactive
5,C[C@@H]1CC[C@@H]2[C@]34OO[C@@](C)(CC[C@@H]13)O[C@H]4OC(=O)[C@@]2(C)S(C)(=O)=O,inactive
6,CO[C@H]1O[C@@H]2O[C@]3(C)CC[C@H]4[C@H](C)CC[C@@H]([C@@]1(C)F)[C@@]24OO3,inactive
7,CO[C@@H]1O[C@@H]2O[C@]3(C)CC[C@H]4[C@H](C)CC[C@@H]([C@@]1(C)F)[C@@]24OO3,inactive
8,CCCCCCCCCCCCCCCCCC(=O)O[C@@H]1O[C@@H]2O[C@]3(C)CC[C@H]4[C@H](C)CC[C@H]([C@@]24OO3)[C@@]1(C)S(C)(=O)=O,inactive
9,C[C@@H]1CC[C@@H]2[C@]34OO[C@@](C)(CC[C@@H]13)O[C@H]4OC(O)[C@]2(C)F (stereo partly specified),inactive
10,CCCCCCCCCCc1ccc(C(=O)O[C@@H]2O[C@@H]3O[C@]4(C)CC[C@H]5[C@H](C)CC[C@H]([C@@]35OO4)[C@@]2(C)S(C)(=O)=O)cc1,inactive
11,C[C@@H]1CC[C@@H]2[C@]34OO[C@@](C)(CC[C@@H]13)O[C@H]4OC(=O)[C@]2(C)S(C)(=O)=O,inactive
